# Patent publication US20250263404A1, “AMINOPYRIDINES AS ACTIVATORS OF PI3 KINASE” (UCL Business Ltd, priority 2021, published 2025)
# What was measured:
# PI3Kα = PI3Kα (Homo sapiens, UniProt P42336); assay: ADP-Glo in vitro lipid kinase assay, PI3Kα; type: biochemical; parameters: Full-length p110α was expressed in a complex with full-length p85α (for biochemistry and HDX-MS); 6xHis followed by TEV protease site (N); made in house; host or cells: Spodoptera frugiperda Sf9 (baculovirus co-infection; plasmids OP831 and OP809); details: for EC50: in vitro PI3Kα activation; for Max. activity relative to pY ctrl: relative to pY control
# Protocol: The effect of 1938 on the in vitro lipid kinase activity of p85α in complex with p110α, p110β or p110δ (further referred to as PI3Kα, PI3Kβ and PI3Kδ) was tested. As a positive control, a bis-phosphorylated phosphopeptide (a PDGF-receptor-derived peptide phosphorylated on Tyr-740 and Tyr-751, hereafter referred to as pY peptide) was used to mimic engagement of the p85α SH2 domains with tyrosine-phosphorylated peptides in membrane-bound receptors and adaptor proteins, known to activate the PI3Kα complex.
# Kinase reactions were performed with ADP-Glo kinase assay kit (Promega Corporation). The enzyme, substrate and compounds were diluted in reaction buffer (20 mM HEPES, 50 mM NaCl, 50 mM KCl, 3 mM MgCl2, 1 mM EGTA, 1 mM TCEP, pH 7.4). Final concentrations of PI3Kα and PI3Kδ used were 25 nM and 50 nM for PI3Kβ. Liposomes (5% brain PI(4,5)P2, 20% brain phosphatidylserine, 45% brain phosphatidylethanolamine, 15% brain phosphatidylcholine, 10% cholesterol, 5% sphingomyelin (Avanti Polar Lipids)) were used at a final concentration of 1 mg/ml.
# For compound profiling, the reaction mixture contained 2 μl PI3K enzyme, 2 μl compound and/or pY and 2 μl of liposome substrate mixed with ATP. ATP was used at a final concentration of 500 μM for PI3Kα and PI3Kβ and at 200 μM for PI3Kδ, unless otherwise stated. The final DMSO concentration in the assay was 1%. The experiments were performed at room temperature for 3 h using 384 white-polystyrene plates (Corning #3824) before addition of 6 μl of ADP-Glo R1 to terminate the reaction. The plate was incubated for 45 min, followed by addition of 12 μl of ADP-Glo R2 and incubated further for 60 min in the dark. Luminescence was read using a Sense (Hidex) plate reader. […] All analyses were performed using GraphPad Prism 7.
# For characterisation of the effects of 1938 on in vitro PI3K enzymology, all reactions were performed at room temperature with 384 white-polystyrene plates (Corning #3574). The final DMSO concentration in the assay was between 0.5%-1.8%. The reaction mixture contained 2 μl PI3K enzyme, 2 μl compound and/or pY and 2 μl of liposome substrate mixed with ATP. ATP was used at a final concentration of 200 μM, unless otherwise stated. The enzyme and compounds were pre-incubated for 10 min prior to addition of substrate. The reaction was allowed to proceed for 45 min at room temperature, before addition of 6 μl of ADP-Glo R1 to terminate the reaction. The plate was incubated for 60 min, followed by addition of 12 μl of ADP-Glo R2 and incubated further for 60 min in the dark. For enzyme kinetic calculations, data was expressed as velocity (pmol of ADP generated/sec). ADP-ATP standard curves were performed according to the manufacturer's instructions, and all analyses were performed using GraphPad Prism 8.
# [1] = Solubility (comparison in words); type: physicochemical
# Chain of PI3Kα (P42336 whole entry, the tested form may be a part): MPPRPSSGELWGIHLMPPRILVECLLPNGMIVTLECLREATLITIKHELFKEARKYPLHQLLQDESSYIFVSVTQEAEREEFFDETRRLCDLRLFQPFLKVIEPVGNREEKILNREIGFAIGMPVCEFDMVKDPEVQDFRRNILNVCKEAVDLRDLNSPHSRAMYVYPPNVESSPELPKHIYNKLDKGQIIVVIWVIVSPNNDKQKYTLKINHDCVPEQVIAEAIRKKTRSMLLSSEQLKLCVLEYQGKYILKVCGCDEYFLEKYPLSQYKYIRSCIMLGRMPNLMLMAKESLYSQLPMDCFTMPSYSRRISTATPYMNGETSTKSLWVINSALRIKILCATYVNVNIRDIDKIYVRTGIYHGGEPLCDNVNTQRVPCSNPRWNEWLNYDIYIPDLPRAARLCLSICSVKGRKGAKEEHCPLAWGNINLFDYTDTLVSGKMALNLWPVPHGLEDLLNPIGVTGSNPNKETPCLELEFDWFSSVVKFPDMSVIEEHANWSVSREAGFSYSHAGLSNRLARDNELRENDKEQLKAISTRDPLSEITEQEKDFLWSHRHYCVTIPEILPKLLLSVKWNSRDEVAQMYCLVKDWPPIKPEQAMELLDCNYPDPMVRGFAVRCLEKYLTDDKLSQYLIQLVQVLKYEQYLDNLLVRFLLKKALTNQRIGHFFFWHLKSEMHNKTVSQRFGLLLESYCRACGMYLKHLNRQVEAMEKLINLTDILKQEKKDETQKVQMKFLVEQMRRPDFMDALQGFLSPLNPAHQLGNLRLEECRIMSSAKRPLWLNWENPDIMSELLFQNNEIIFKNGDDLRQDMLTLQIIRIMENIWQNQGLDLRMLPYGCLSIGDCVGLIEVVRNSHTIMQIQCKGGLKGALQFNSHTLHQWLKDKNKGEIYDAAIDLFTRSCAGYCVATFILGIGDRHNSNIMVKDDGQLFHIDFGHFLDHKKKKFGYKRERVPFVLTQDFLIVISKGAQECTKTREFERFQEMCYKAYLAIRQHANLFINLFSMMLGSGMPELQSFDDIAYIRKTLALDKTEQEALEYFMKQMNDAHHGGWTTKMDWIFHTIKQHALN
# Chain of PI3Kα (P27986 whole entry partner, the tested form may be a part): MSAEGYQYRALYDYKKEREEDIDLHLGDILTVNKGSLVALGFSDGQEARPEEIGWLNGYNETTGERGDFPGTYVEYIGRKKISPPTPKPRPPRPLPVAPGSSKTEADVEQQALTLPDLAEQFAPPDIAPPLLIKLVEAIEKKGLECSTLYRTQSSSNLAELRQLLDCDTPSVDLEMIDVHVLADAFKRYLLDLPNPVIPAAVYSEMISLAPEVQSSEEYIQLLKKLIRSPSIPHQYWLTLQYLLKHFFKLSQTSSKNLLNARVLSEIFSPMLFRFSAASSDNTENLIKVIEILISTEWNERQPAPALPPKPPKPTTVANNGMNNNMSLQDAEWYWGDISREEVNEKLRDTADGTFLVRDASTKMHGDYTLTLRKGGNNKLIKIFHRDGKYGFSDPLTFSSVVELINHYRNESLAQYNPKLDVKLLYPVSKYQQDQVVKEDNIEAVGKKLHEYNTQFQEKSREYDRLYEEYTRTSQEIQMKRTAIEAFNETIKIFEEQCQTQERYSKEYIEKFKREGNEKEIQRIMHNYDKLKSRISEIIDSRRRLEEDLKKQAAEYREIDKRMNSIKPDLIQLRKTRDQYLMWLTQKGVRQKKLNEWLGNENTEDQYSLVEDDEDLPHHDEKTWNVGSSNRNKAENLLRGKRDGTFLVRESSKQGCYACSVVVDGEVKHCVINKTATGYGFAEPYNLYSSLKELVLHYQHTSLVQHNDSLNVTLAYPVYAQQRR
Compound,activity compared with 1938 (in words) (PI3Kα),EC50 (PI3Kα),Max. activity relative to 1938 (PI3Kα),Max. activity relative to pY ctrl (PI3Kα),solubility compared with 1938 (in words) [1],reduction in activity (PI3Kα; structure-activity comparison with 1938)
COc1cc(Nc2cc(Nc3cccc4c3N(C(C)=O)CC4)ccn2)cc(OC)c1OC [Example 1887],activities comparable with 1938,36 ± 5 µM,80%,318 ± 68%,–,–
COc1cc(N2CCN(C)CC2)ccc1Nc1cc(Nc2cccc3c2N(C(C)=O)CC3)ccn1 [Example 1889],activities comparable with 1938,56 ± 24 µM,102%,408 ± 110%,–,–
CC(=O)N1CCc2cccc(Nc3ccnc(Nc4ccccc4)c3)c21 [Example 2016],–,–,9%,36 ± 8%,less soluble than 1938,more than 90%
CCN1CCN(c2ccc(Nc3cc(Nc4ccncn4)ccn3)cc2)CC1 [Example 2106],–,–,4%,14 ± 13%,–,–
CCN1CCN(c2ccc(Nc3nccc(Nc4cccc5c4N(C(C)=O)CC5)n3)cc2)CC1 [Example 2152],–,–,4%,16 ± 8%,–,–
